Laboratory results: US20050008607A1, “Composition containing a carbonyl amine” (priority 2003, published 2005)
“Also recorded” adds a separate entry of the source.

Columns and labels:
[1] = tested on: human striated muscle cells innervated with explants of spinal cord and of spinal ganglia from rat embryos; format: cell-based
[2] = tested on: wrinkles; conditions: in vivo; cited from earlier work

CN1C(=O)CN=C(c2ccccc2)c2cc(Cl)ccc21 [diazepam, reference compound]
muscle fibre contractions [1]: inhibited muscle fibre contractions | anti-wrinkle activity [2]: demonstrated in vivo

botulinum toxin
blocking effect on contractions [1]: blocking effect which is much weaker; also recorded: complete | blocking of the contractions [1]: completely blocks the contractions | frequency of the contractions [1]: greatly decreases the frequency of the contractions

CCCCCC(=O)CCN(CC)CCCc1ccccc1 [Compound (4)]
contractions of three muscle fibres ([1]; 100 μM, incubated for 60 seconds, contractions counted over 30 seconds): blocks the contractions
